Measurements as given in ChEMBL document CHEMBL1777719, “Norcantharidin analogues with nematocidal activity in Haemonchus contortus” (Bioorg Med Chem Lett, 2011).
Calls of active or inactive are those of the source. The calls are words filed in the database; no cut-off is given here.

Columns and labels:
[1] = Cytotoxicity against human A2780 cells after 72 hrs by MTT assay; type: cell-based
[2] = Cytotoxicity against human A431 cells after 72 hrs by MTT assay; type: cell-based, A-431
Haemonchus contortus = assay: Nematocidal activity against Haemonchus contortus Haecon 5 strain isolated from helminth-free Merino weaner sheep at 12.5 to 100 uM after 6 days by larval development assay; type: functional, organism-based
[3] = Cytotoxicity against human DU145 cells after 72 hrs by MTT assay; type: cell-based, DU-145
[4] = Cytotoxicity against human HT-29 cells after 72 hrs by MTT assay; type: cell-based
[5] = Cytotoxicity against human SJ-G2 cells after 72 hrs by MTT assay; type: cell-based
[6] = Cytotoxicity against human H460 cells after 72 hrs by MTT assay; type: cell-based; details: NCI-H460 cells
[7] = Cytotoxicity against human SW480 cells after 72 hrs by MTT assay; type: cell-based
[8] = Cytotoxicity against human MCF7 cells after 72 hrs by MTT assay; type: cell-based
[9] = Cytotoxicity against human BE(2)-C cells after 72 hrs by MTT assay; type: cell-based

| Structure (SMILES) | GI50 at 72 h [1] | GI50 at 72 h [2] | inhibition (Haemonchus contortus) | GI50 at 72 h [3] | GI50 at 72 h [4] | GI50 at 72 h [5] | GI50 at 72 h [6] | GI50 at 72 h [7] | GI50 at 72 h [8] | GI50 at 72 h [9] |
| --- | --- | --- | --- | --- | --- | --- | --- | --- | --- | --- |
| O=C(O)C1C(C(=O)Nc2ccc(Br)cc2)[C@H]2CC[C@@H]1O2 (stereo partly specified) | 10 µM | 10 µM | inactive | 10 µM | 10 µM | 10 µM | 10 µM | 10 µM | 10 µM | 10 µM |
| O=C(O)[C@H](Cc1ccc(O)cc1)N1C(=O)[C@@H]2[C@H](C1=O)[C@H]1CC[C@@H]2O1 | > 75 µM | > 75 µM | – | > 75 µM | > 75 µM | > 75 µM | > 75 µM | > 75 µM | > 75 µM | > 75 µM |
| CCCCCCCCCCCCN1C(=O)[C@@H]2[C@H](C1=O)[C@H]1CC[C@@H]2O1 | – | – | inactive | – | – | – | – | – | – | – |
| O=C(O)C1C(C(=O)NCc2ccc(Cl)cc2)[C@H]2CC[C@@H]1O2 (stereo partly specified) | 10 µM | 10 µM | inactive | 10 µM | 10 µM | 10 µM | 10 µM | 10 µM | 10 µM | 10 µM |
| CCCCCCCCN1C(=O)C2=C(C)[C@H]3C=C[C@@]2(O3)[C@@H]1C(=O)NCC(=O)OCC | – | – | inactive | – | – | – | – | – | – | – |
| C=CCNC(=O)C1C(C(=O)O)[C@@H]2CC[C@H]1O2 (stereo partly specified) | 10 µM | 10 µM | inactive | 10 µM | 10 µM | 10 µM | 10 µM | 10 µM | 10 µM | 10 µM |
| O=C1[C@@H]2[C@H](C(=O)N1c1ncccc1OCc1ccccc1)[C@H]1CC[C@@H]2O1 | > 75 µM | > 75 µM | – | > 75 µM | > 75 µM | > 75 µM | > 75 µM | > 75 µM | > 75 µM | > 75 µM |
| CCCCNC(=O)C1C(C(=O)O)[C@@H]2CC[C@H]1O2 (stereo partly specified) | 10 µM | 10 µM | inactive | 10 µM | 10 µM | 10 µM | 10 µM | 10 µM | 10 µM | 10 µM |
| CCCCCCCCCCCCCCCCCCN1C(=O)[C@@H]2[C@H](C1=O)[C@H]1CC[C@@H]2O1 | – | – | inactive | – | – | – | – | – | – | – |
| CCc1ccccc1NC(=O)C1C(C(=O)O)[C@@H]2CC[C@H]1O2 (stereo partly specified) | 10 µM | 10 µM | inactive | 10 µM | 10 µM | 10 µM | 10 µM | 10 µM | 10 µM | 10 µM |
| CCCCCCCCN1C(=O)C2=C(C)[C@H]3C=C[C@@]2(O3)[C@H]1C(=O)NCC(=O)OCC | – | – | inactive | – | – | – | – | – | – | – |
| O=C(O)C1C(C(=O)NCCCc2ccccc2)[C@H]2CC[C@@H]1O2 (stereo partly specified) | 10 µM | 10 µM | inactive | 10 µM | 10 µM | 10 µM | 10 µM | 10 µM | 10 µM | 10 µM |
| O=C(O)C1C(C(=O)Nc2ccc(O)cc2)[C@H]2CC[C@@H]1O2 (stereo partly specified) | 10 µM | 10 µM | inactive | 10 µM | 10 µM | 10 µM | 10 µM | 10 µM | 10 µM | 10 µM |
| O=C(O)C1C(C(=O)Nc2ccccc2)[C@H]2CC[C@@H]1O2 (stereo partly specified) | 10 µM | 10 µM | inactive | 10 µM | 10 µM | 10 µM | 10 µM | 10 µM | 10 µM | 10 µM |
| CCCCCNC(=O)[C@H]1N(CCCN(C)C)C(=O)C2=C(CCCC)[C@H]3C=C[C@]21O3 | – | – | inactive | – | – | – | – | – | – | – |
| CCCCCNC(=O)[C@H]1N(Cc2ccccc2)C(=O)C2=C(C)[C@H]3C=C[C@]21O3 | – | – | inactive | – | – | – | – | – | – | – |
| O=C(O)CCCCCCCNC(=O)C1C(C(=O)O)[C@@H]2CC[C@H]1O2 (stereo partly specified) | 10 µM | 10 µM | inactive | 10 µM | 10 µM | 10 µM | 10 µM | 10 µM | 10 µM | 10 µM |
| CN(C)CCOc1ccccc1N1C(=O)[C@@H]2[C@H](C1=O)[C@H]1CC[C@@H]2O1 | > 75 µM | > 75 µM | – | > 75 µM | > 75 µM | > 75 µM | > 75 µM | > 75 µM | > 75 µM | > 75 µM |
| CCCCCCCCCCNC(=O)C1C(C(=O)O)[C@@H]2CC[C@H]1O2 (stereo partly specified) | 10 µM | 10 µM | inactive | 10 µM | 10 µM | 10 µM | 10 µM | 10 µM | 10 µM | 10 µM |
| CCCCCNC(=O)[C@@H]1N(CCCN(C)C)C(=O)C2=C(CCCC)[C@H]3C=C[C@]21O3 | – | – | inactive | – | – | – | – | – | – | – |
| O=C1[C@@H]2[C@H](C(=O)N1CCOP(=O)(OCC(Cl)(Cl)Cl)OCC(Cl)(Cl)Cl)[C@H]1CC[C@@H]2O1 | > 75 µM | > 75 µM | – | > 75 µM | > 75 µM | > 75 µM | > 75 µM | > 75 µM | > 75 µM | > 75 µM |
| CCOC(=O)c1cn[nH]c1NC(=O)C1C(C(=O)O)[C@@H]2CC[C@H]1O2 (stereo partly specified) | 10 µM | 10 µM | inactive | 10 µM | 10 µM | 10 µM | 10 µM | 10 µM | 10 µM | 10 µM |
| CCCCCCCCCCCCCCN1C(=O)[C@@H]2[C@H](C1=O)[C@H]1CC[C@@H]2O1 | – | – | inactive | – | – | – | – | – | – | – |
| COC(=O)CNC(=O)[C@@H]1N(CCCCCO)C(=O)C2=C(C)[C@H]3C=C[C@]21O3 | – | – | inactive | – | – | – | – | – | – | – |
| COC(=O)CNC(=O)[C@H]1N(CCCCCO)C(=O)C2=C(C)[C@H]3C=C[C@]21O3 | – | – | inactive | – | – | – | – | – | – | – |
| CCCCCNC(=O)[C@@H]1N(Cc2ccccc2)C(=O)C2=C(C)[C@H]3C=C[C@]21O3 | – | – | inactive | – | – | – | – | – | – | – |
| CN(C)CCOc1ccc(N2C(=O)[C@@H]3[C@H](C2=O)[C@H]2CC[C@@H]3O2)cc1 | > 75 µM | > 75 µM | – | > 75 µM | > 75 µM | > 75 µM | > 75 µM | > 75 µM | > 75 µM | > 75 µM |
